Source: patent publication US20210393742A1, “LONG-ACTING INTERLEUKIN-15 RECEPTOR AGONIST IN COMBINATION WITH ANOTHER PHARMACOLOGICALLY ACTIVE AGENT” (Nektar Therapeutics, priority 2018, published 2021)

Assays:
[1] = tested on: KHYG-1 cells; test: KHYG-1 cell proliferation, CellTiter-Glo 2.0 (Example 7); format: cell-based, human; conditions: 48 hours
Description: KHYG-1 cells were cultured in RPMI-1640 medium supplemented with 20% FBS, 2 mM L-glutamine, and 20 ng/mL IL-2 (Complete growth medium) in a humidified incubator at 37° C. and 5% CO2.
One day prior to treatment with test compounds, cells were seeded at a density of 500,000 viable cells/ml in Complete growth medium and incubated overnight under normal growth conditions. On the day of the assay, KHYG-1 cells were washed 3 times with DPBS, resuspended in assay medium (RPMI-1640 medium supplemented with 20% FBS, 2 mM L-glutamine), and incubated for 4-5 hours at 37° C., 5% CO2. Cells were adjusted to the appropriate density (8×10^5 cells/mL) in assay medium and 50,000 cells/well were aliquoted into wells of a 96-well plate (View-Plate 96, Perkin-Elmer).
Stimulation of KHYG-1 cells was initiated by the transfer of IL-15 or a long-acting IL-15 receptor agonist (mono(mPEG-butanamide)IL-15) to duplicate wells containing cells, followed by 48 hours incubation at 37° C., 5% CO2.
Cell growth in each well was measured by monitoring ATP levels using CellTiter-Glo 2.0, following the manufacturer's instructions. The effect of the long-acting IL-15 receptor agonist on KHYG-1 cell proliferation was compared to IL-15 following 48-hour treatment using CellTiter-Glo 2.0 with the results shown in FIG. 10B.

[2] = tested on: NK cells; test: Granzyme B expression per cell in bone marrow NK cells of Daudi lymphoma bearing mice (Example 11); format: in vivo; conditions: bone marrow day 24; Conjugate 1 0.3 mg/kg; antibody 0.5 mg/kg
Description: Balb/c mice bearing Daudi B cell lymphoma tumors in the bone marrow (n=6/group) were intraperitoneally administered a single 0.5 mg/kg dose of the human CD38 protein targeting clinical antibody daratumumab (DARZALEX®), Janssen Biotech) or a nonspecific control antibody with a matching isotype on day 14 after Daudi cell intravenous inoculation. Additional groups were treated with (i) mono(mPEG-N-butanamide)40 kD interleukin-15 (Conjugate 1) administered subcutaneously at a dose of 0.3 mg/kg as a single agent on days 14 and 21 after Daudi cell inoculation, or (ii) a combination treatment of Conjugate 1 administered subcutaneously at doses of 0.03 mg/kg or 0.3 mg/kg on days 14 and 21 after Daudi cell inoculation and daratumumab administered intraperitoneally at a dose of 0.5 mg/kg on day 14 after Daudi cell inoculation.
Three days following the second Conjugate 1 administration (day 24 after Daudi inoculation), bone marrow was collected and the NK cell fraction was measured by flow cytometry in total bone marrow.

[3] = tested on: HCT-116 colorectal carcinoma cells; test: Tumor growth inhibition and delay in HCT-116 colorectal carcinoma xenograft model (Example 19); format: in vivo, mice
Description: Tumor growth inhibition was evaluated on day 19 after treatment initiation.
The tumor growth delay was evaluated by measuring tumor volume quadrupling time (TVQT) from baseline tumor volume on treatment initiation day.

mono(methoxyPEG-N-butanamide)40 kD interleukin-15 [Conjugate 1]
maximal proliferative response [1]: comparable to the response produced by IL-15 | Granzyme B mean fluorescence intensity (MFI mean value) [2]: 2649 | Relative Granzyme B expression compared to untreated condition [2]: 6.7x increase | tumor growth inhibition ([3]; day 19 after treatment initiation, cetuximab 40 mg/kg IP x6, Compound 1 0.3 mg/kg IV x3): 31% | tumor growth delay (TVQT) ([3]; tumor volume quadrupling time from baseline): 26%
